Test results taken from publication PMC5775428, “Towards an experimental classification system for membrane active peptides” (Scientific Reports, 2018).
Read-outs that look alike come from different tables or passages of the source.

Experiments:
[1] = tested on: Staphylococcus aureus; details: Staphylococcus aureus; for Minimum inhibitory concentration, Average: average of triplicates
Method: (§1) Antimicrobial activity was tested against three categories of human and plant pathogenic microorganisms: Gram-positive (Bacillus subtilis, Bacillus cereus, Staphylococcus aureus), Gram-negative (Escherichia coli, Pseudomonas aeruginosa, Erwinia carotovora, Pseudomonas syringae pv. tabaci, Xanthomonas campestris pv. citri) and yeasts (Candida albicans, Cryptococcus neoformans), as previously reported. […] The full list of peptide MICs was published in an accompanying paper, and is available in the current publication as supplementary dataset (Supplementary dataset 01).
(§2) The determination of the minimum inhibitory concentration (MIC) of peptides was performed as described in “Encrypted Antimicrobial Peptides from Plant Proteins”[7]. Briefly, MICs were determined following protocols M7-A10 and M27-A3 from Clinical & Laboratory Standards Institute (CLSI) for bacteria and yeasts, respectively. Different concentrations of IAPs (0.5 to 256 μM) were tested against several microorganisms in a final volume of 100 µL. Three biological repetitions, with 2 technical replicates each, were performed for each test, on polystyrene flat-bottom 96 wells microplates. The minimum inhibitory concentration (MIC) was defined as the concentration at which no cells were detected when visualized by optical microscopy. Please refer to the literature[7] for further details of the microbiological assays.

[2] = tested on: Pseudomonas aeruginosa; details: Pseudomonas aeruginosa; for Minimum inhibitory concentration, Average: average of triplicates
Method: as §1, §2

[3] = tested on: Candida albicans; details: Candida albicans; for Minimum inhibitory concentration, Average: average of triplicates
Method: as §1, §2

[4] = tested on: Escherichia coli; details: Escherichia coli; for Minimum inhibitory concentration, Average: average of triplicates
Method: as §1, §2

[5] = CLSI M27-A3, 0.5 to 256 μM tested, triplicate 1, also published in ref 7

| Sequence | Minimum inhibitory concentration ([1]; CLSI M7-A10, triplicate 1) | Minimum inhibitory concentration, Average [1] | Minimum inhibitory concentration ([1]; triplicate 2) | Minimum inhibitory concentration ([1]; triplicate 3) | Minimum inhibitory concentration ([2]; CLSI M7-A10, triplicate 1) | Minimum inhibitory concentration, Average [2] | Minimum inhibitory concentration ([2]; triplicate 2) | Minimum inhibitory concentration ([2]; triplicate 3) | Minimum inhibitory concentration [3, 5] | Minimum inhibitory concentration, Average [3] | Minimum inhibitory concentration ([3]; triplicate 2) | Minimum inhibitory concentration ([3]; triplicate 3) | Minimum inhibitory concentration ([4]; CLSI M7-A10, triplicate 1) | Minimum inhibitory concentration, Average [4] | Minimum inhibitory concentration ([4]; triplicate 2) | Minimum inhibitory concentration ([4]; triplicate 3) |
| --- | --- | --- | --- | --- | --- | --- | --- | --- | --- | --- | --- | --- | --- | --- | --- | --- |
| FLSLIPHAINAVSTLVHHF [PS-2, reference compound] | 8 µM | 8.0 µM | 8 µM | 8 µM | 512 µM | 512.0 µM | 512 µM | 512 µM | 32 µM | 32.0 µM | 32 µM | 32 µM | 8 µM | 8.0 µM | 8 µM | 8 µM |
| GLKDMIKNLAKEAAVKLAGAVINKFSPQPQ [Nat-1, Nattererin-1, reference compound] | 16 µM | 26.7 µM | 32 µM | 32 µM | 32 µM | 32.0 µM | 32 µM | 32 µM | 16 µM | 16.0 µM | 16 µM | 16 µM | 8 µM | 8.0 µM | 8 µM | 8 µM |
| GIGKFLHSAKKFGKAFVGEIMNS [Mag-2a, Magainin-2a, reference compound] | 512 µM | 512.0 µM | 512 µM | 512 µM | 512 µM | 512.0 µM | 512 µM | 512 µM | 64 µM | 64.0 µM | 64 µM | 64 µM | 8 µM | 8.0 µM | 8 µM | 8 µM |
| GIGDILKNLAKAAGKAALHAVGESL [HSP-4, Hylaseptin-4, reference compound] | 8 µM | 8.0 µM | 8 µM | 8 µM | 16 µM | 16.0 µM | 16 µM | 16 µM | 8 µM | 8.0 µM | 8 µM | 8 µM | 8 µM | 8.0 µM | 8 µM | 8 µM |
